# Assay: Safety and tolerability
# Details: for Subjects with TEAEs: all evobrutinib doses pooled
# [1] = one subject, 200 mg single dose, day 11
# [2] = part 1 single dosing, pooled evobrutinib
# [3] = part 2 multiple dosing, pooled evobrutinib
smiles,measurement,setting,value
C=CC(=O)N1CCC(CNc2ncnc(N)c2-c2ccc(Oc3ccccc3)cc2)CC1 [evobrutinib],TEAE: Abdominal pain,"SAD 100 mg, n = 6","0 (0.0) n (%), (number of events)"
same,TEAE: Amylase increased,"SAD 100 mg, n = 6","0 (0.0) n (%), (number of events)"
same,TEAE: Application site pruritus (due to ECG stickers),"SAD 100 mg, n = 6","0 (0.0) n (%), (number of events)"
same,TEAE: Back pain,"SAD 100 mg, n = 6","0 (0.0) n (%), (number of events)"
same,TEAE: Contact dermatitis,"SAD 100 mg, n = 6","0 (0.0) n (%), (number of events)"
same,TEAE: Dizziness,"SAD 100 mg, n = 6","0 (0.0) n (%), (number of events)"
same,TEAE: Dry eye,"SAD 100 mg, n = 6","0 (0.0) n (%), (number of events)"
same,TEAE: Dry mouth,"SAD 100 mg, n = 6","0 (0.0) n (%), (number of events)"
same,TEAE: Dyspepsia,"SAD 100 mg, n = 6","0 (0.0) n (%), (number of events)"
same,TEAE: Excoriation,"SAD 100 mg, n = 6","0 (0.0) n (%), (number of events)"
same,TEAE: Headache,"SAD 100 mg, n = 6","0 (0.0) n (%), (number of events)"
same,TEAE: Lipase increased,"SAD 100 mg, n = 6","0 (0.0) n (%), (number of events)"
same,TEAE: Multiple injuries,"SAD 100 mg, n = 6","0 (0.0) n (%), (number of events)"
same,TEAE: Nasal congestion,"SAD 100 mg, n = 6","1 (16.7) (1) n (%), (number of events)"
same,TEAE: Noncardiac chest pain,"SAD 100 mg, n = 6","0 (0.0) n (%), (number of events)"
same,TEAE: Odynophagia,"SAD 100 mg, n = 6","0 (0.0) n (%), (number of events)"
same,TEAE: Overall total,"SAD 100 mg, n = 6","1 (16.7) (1) n (%), (number of events)"
same,TEAE: URTI,"SAD 100 mg, n = 6","0 (0.0) n (%), (number of events)"
same,TEAE: Abdominal pain,"SAD 200 mg, n = 6","0 (0.0) n (%), (number of events)"
same,TEAE: Amylase increased,"SAD 200 mg, n = 6","1 (16.7) (1) n (%), (number of events)"
same,TEAE: Application site pruritus (due to ECG stickers),"SAD 200 mg, n = 6","0 (0.0) n (%), (number of events)"
same,TEAE: Back pain,"SAD 200 mg, n = 6","0 (0.0) n (%), (number of events)"
same,TEAE: Contact dermatitis,"SAD 200 mg, n = 6","0 (0.0) n (%), (number of events)"
same,TEAE: Dizziness,"SAD 200 mg, n = 6","1 (16.7) (1) n (%), (number of events)"
same,TEAE: Dry eye,"SAD 200 mg, n = 6","0 (0.0) n (%), (number of events)"
same,TEAE: Dry mouth,"SAD 200 mg, n = 6","0 (0.0) n (%), (number of events)"
same,TEAE: Dyspepsia,"SAD 200 mg, n = 6","0 (0.0) n (%), (number of events)"
same,TEAE: Excoriation,"SAD 200 mg, n = 6","1 (16.7) (1) n (%), (number of events)"
same,TEAE: Headache,"SAD 200 mg, n = 6","0 (0.0) n (%), (number of events)"
same,TEAE: Lipase increased,"SAD 200 mg, n = 6","1 (16.7) (1) n (%), (number of events)"
same,TEAE: Multiple injuries,"SAD 200 mg, n = 6","0 (0.0) n (%), (number of events)"
same,TEAE: Nasal congestion,"SAD 200 mg, n = 6","0 (0.0) n (%), (number of events)"
same,TEAE: Noncardiac chest pain,"SAD 200 mg, n = 6","0 (0.0) n (%), (number of events)"
same,TEAE: Odynophagia,"SAD 200 mg, n = 6","0 (0.0) n (%), (number of events)"
same,TEAE: Overall total,"SAD 200 mg, n = 6","2 (33.3) (4) n (%), (number of events)"
same,TEAE: URTI,"SAD 200 mg, n = 6","0 (0.0) n (%), (number of events)"
same,TEAE: Abdominal pain,"SAD 350 mg, n = 6","0 (0.0) n (%), (number of events)"
same,TEAE: Amylase increased,"SAD 350 mg, n = 6","0 (0.0) n (%), (number of events)"
same,TEAE: Application site pruritus (due to ECG stickers),"SAD 350 mg, n = 6","0 (0.0) n (%), (number of events)"
same,TEAE: Back pain,"SAD 350 mg, n = 6","0 (0.0) n (%), (number of events)"
same,TEAE: Contact dermatitis,"SAD 350 mg, n = 6","0 (0.0) n (%), (number of events)"
same,TEAE: Dizziness,"SAD 350 mg, n = 6","0 (0.0) n (%), (number of events)"
same,TEAE: Dry eye,"SAD 350 mg, n = 6","0 (0.0) n (%), (number of events)"
same,TEAE: Dry mouth,"SAD 350 mg, n = 6","0 (0.0) n (%), (number of events)"
same,TEAE: Dyspepsia,"SAD 350 mg, n = 6","0 (0.0) n (%), (number of events)"
same,TEAE: Excoriation,"SAD 350 mg, n = 6","0 (0.0) n (%), (number of events)"
same,TEAE: Headache,"SAD 350 mg, n = 6","0 (0.0) n (%), (number of events)"
same,TEAE: Lipase increased,"SAD 350 mg, n = 6","0 (0.0) n (%), (number of events)"
same,TEAE: Multiple injuries,"SAD 350 mg, n = 6","1 (16.7) (1) n (%), (number of events)"
same,TEAE: Nasal congestion,"SAD 350 mg, n = 6","0 (0.0) n (%), (number of events)"
same,TEAE: Noncardiac chest pain,"SAD 350 mg, n = 6","0 (0.0) n (%), (number of events)"
same,TEAE: Odynophagia,"SAD 350 mg, n = 6","0 (0.0) n (%), (number of events)"
same,TEAE: Overall total,"SAD 350 mg, n = 6","1 (16.7) (1) n (%), (number of events)"
same,TEAE: URTI,"SAD 350 mg, n = 6","0 (0.0) n (%), (number of events)"
same,TEAE: Abdominal pain,"SAD 500 mg, n = 6","0 (0.0) n (%), (number of events)"
same,TEAE: Amylase increased,"SAD 500 mg, n = 6","0 (0.0) n (%), (number of events)"
same,TEAE: Application site pruritus (due to ECG stickers),"SAD 500 mg, n = 6","0 (0.0) n (%), (number of events)"
same,TEAE: Back pain,"SAD 500 mg, n = 6","0 (0.0) n (%), (number of events)"
same,TEAE: Contact dermatitis,"SAD 500 mg, n = 6","0 (0.0) n (%), (number of events)"
same,TEAE: Dizziness,"SAD 500 mg, n = 6","0 (0.0) n (%), (number of events)"
same,TEAE: Dry eye,"SAD 500 mg, n = 6","1 (16.7) (1) n (%), (number of events)"
same,TEAE: Dry mouth,"SAD 500 mg, n = 6","0 (0.0) n (%), (number of events)"
same,TEAE: Dyspepsia,"SAD 500 mg, n = 6","0 (0.0) n (%), (number of events)"
same,TEAE: Excoriation,"SAD 500 mg, n = 6","0 (0.0) n (%), (number of events)"
same,TEAE: Headache,"SAD 500 mg, n = 6","1 (16.7) (1) n (%), (number of events)"
same,TEAE: Lipase increased,"SAD 500 mg, n = 6","0 (0.0) n (%), (number of events)"
same,TEAE: Multiple injuries,"SAD 500 mg, n = 6","0 (0.0) n (%), (number of events)"
same,TEAE: Nasal congestion,"SAD 500 mg, n = 6","0 (0.0) n (%), (number of events)"
same,TEAE: Noncardiac chest pain,"SAD 500 mg, n = 6","0 (0.0) n (%), (number of events)"
same,TEAE: Odynophagia,"SAD 500 mg, n = 6","1 (16.7) (1) n (%), (number of events)"
same,TEAE: Overall total,"SAD 500 mg, n = 6","2 (33.3) (3) n (%), (number of events)"
same,TEAE: URTI,"SAD 500 mg, n = 6","0 (0.0) n (%), (number of events)"
same,TEAE: Abdominal pain,"SAD pooled active, n = 36","0 (0.0) n (%), (number of events)"
same,TEAE: Amylase increased,"SAD pooled active, n = 36","1 (2.8) (1) n (%), (number of events)"
same,TEAE: Application site pruritus (due to ECG stickers),"SAD pooled active, n = 36","0 (0.0) n (%), (number of events)"
same,TEAE: Back pain,"SAD pooled active, n = 36","1 (2.8) (1) n (%), (number of events)"
same,TEAE: Contact dermatitis,"SAD pooled active, n = 36","2 (5.6) (2) n (%), (number of events)"
same,TEAE: Dizziness,"SAD pooled active, n = 36","1 (2.8) (1) n (%), (number of events)"
same,TEAE: Dry eye,"SAD pooled active, n = 36","1 (2.8) (1) n (%), (number of events)"
same,TEAE: Dry mouth,"SAD pooled active, n = 36","0 (0.0) n (%), (number of events)"
same,TEAE: Dyspepsia,"SAD pooled active, n = 36","1 (2.8) (1) n (%), (number of events)"
same,TEAE: Excoriation,"SAD pooled active, n = 36","1 (2.8) (1) n (%), (number of events)"
same,TEAE: Headache,"SAD pooled active, n = 36","2 (5.6) (3) n (%), (number of events)"
same,TEAE: Lipase increased,"SAD pooled active, n = 36","1 (2.8) (1) n (%), (number of events)"
same,TEAE: Multiple injuries,"SAD pooled active, n = 36","1 (2.8) (1) n (%), (number of events)"
same,TEAE: Nasal congestion,"SAD pooled active, n = 36","1 (2.8) (1) n (%), (number of events)"
same,TEAE: Noncardiac chest pain,"SAD pooled active, n = 36","0 (0.0) n (%), (number of events)"
same,TEAE: Odynophagia,"SAD pooled active, n = 36","1 (2.8) (1) n (%), (number of events)"
same,TEAE: Overall total,"SAD pooled active, n = 36","9 (25.0) (15) n (%), (number of events)"
same,TEAE: URTI,"SAD pooled active, n = 36","0 (0.0) n (%), (number of events)"
same,nontolerated dose,after SAD or MAD administrations,no nontolerated dose could be defined
same,Subjects with TEAEs,after multiple dosing,48.1%
same,Subjects with TEAEs,after single dosing,25%
same,toxicity grade of increased amylase,[1],3 grade
same,toxicity grade of increased lipase (dose‐limiting TEAE),[1],4 grade
same,Subjects with contact dermatitis at locations of ECG pads,[2],5.6%
same,Subjects with headache,[2],5.6%
same,severity of TEAEs,part 2 multiple dosing,All TEAEs reported were mild and no dose‐limiting adverse events were reported
same,Subjects with fatigue,[3],7.4%
same,Subjects with gastrointestinal TEAEs,[3],18.5%
same,Subjects with headache,[3],11.1%
same,Subjects with skin irritation due to ECG pads,[3],7.4%
same,Subjects with upper respiratory tract infection,[3],7.4%
same,deaths or treatment-related SAEs,parts 1 and 2,no deaths or SAEs related to treatment
